# Test results: PubChem BioAssay (NCI)
#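 GI50 marks 50% less growth. TGI: concentration producing complete growth inhibition.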
# Columns and labels:
# Assay in all cases: growth of human tumour cells (NCI), 384-well format
# [1] = test system: KM12 colon
# [2] = test system: K-562 leukemia
# [3] = test system: OVCAR-3 ovarian
# [4] = test system: LOX IMVI melanoma
# [5] = test system: SF-539 CNS
# [6] = test system: HOP-92 NSCLC
# [7] = test system: PC-3 prostate
# [8] = test system: NCI/ADR-RES ovarian
# [9] = test system: OVCAR-4 ovarian
# [10] = test system: NCI-H522 lung
# [11] = test system: DU-145 prostate
# [12] = test system: HOP-62 NSCLC
# [13] = test system: HL-60(TB) leukemia
# [14] = test system: A549 NSCLC
# [15] = test system: SF-295 CNS
# [16] = test system: HCC-2998 colon
# [17] = test system: SR leukemia
# [18] = test system: OVCAR-5 ovarian
# [19] = test system: IGROV1 ovarian
# [20] = test system: MOLT-4 leukemia
# [21] = test system: 786-0 renal
# [22] = test system: TK-10 renal
# [23] = test system: M14 melanoma
# [24] = test system: SNB-19 CNS
# [25] = test system: BT-549 breast
# [26] = test system: SK-MEL-5 melanoma
# [27] = test system: HCT-15 colon
# [28] = test system: UACC-62 melanoma
# [29] = test system: RXF 393 renal
# [30] = test system: MCF7 breast
# [31] = test system: MDA-MB-231 breast
# [32] = test system: SK-MEL-2 melanoma
# [33] = test system: MDA-MB-435 melanoma
# [34] = test system: UACC-257 melanoma
# [35] = test system: HCT-116 colon
# [36] = test system: COLO 205 colon
# [37] = test system: CAKI-1 renal
# [38] = test system: SW-620 colon
# [39] = test system: U251 glioblastoma
# [40] = test system: MDA-MB-468 breast
# [41] = test system: MALME-3M melanoma
# [42] = test system: NCI-H460 NSCLC
# [43] = test system: T-47D breast
# [44] = test system: OVCAR-8 ovarian
# [45] = test system: SK-MEL-28 melanoma
# [46] = test system: HT29 colon
# [47] = test system: SK-OV-3 ovarian
# [48] = test system: NCI-H322M lung
# [49] = test system: NCI-H23 lung
# [50] = test system: SF-268 CNS
# [51] = test system: CCRF-CEM leukemia
# [52] = test system: NCI-H226 lung
# [53] = test system: UO-31 renal
# [54] = test system: A498 renal
# [55] = test system: SN12C renal
# [56] = test system: ACHN renal
structure (smiles),measurement,setting,value
N[C@@H](CSSC[C@H](N)C(=O)N1CCn2cc(-c3ccccc3)nc2[C@@H]1CC1CCCCC1)C(=O)N1CCn2cc(-c3ccccc3)nc2[C@@H]1CC1CCCCC1,GI50,[1],312 nM
same,TGI,[1],1550 nM
same,GI50,[2],551 nM
same,TGI,[2],1740 nM
same,GI50,[3],1100 nM
same,TGI,[3],2310 nM
same,GI50,[4],1330 nM
same,TGI,[4],2620 nM
same,GI50,[5],1720 nM
same,TGI,[5],3.1 µM
same,GI50,[6],1980 nM
same,TGI,[6],3.44 µM
same,GI50,[7],1830 nM
same,TGI,[7],3.26 µM
same,GI50,[8],2350 nM
same,TGI,[8],5.41 µM
same,GI50,[9],1940 nM
same,TGI,[9],3.38 µM
same,GI50,[10],1610 nM
same,TGI,[10],2970 nM
same,GI50,[11],1850 nM
same,TGI,[11],6.34 µM
same,GI50,[12],1250 nM
same,TGI,[12],2530 nM
same,GI50,[13],796 nM
same,TGI,[13],1990 nM
same,GI50,[14],1260 nM
same,TGI,[14],2530 nM
same,GI50,[15],1940 nM
same,TGI,[15],3.36 µM
same,GI50,[16],1700 nM
same,TGI,[16],3.08 µM
same,GI50,[17],220 nM
same,TGI,[17],627 nM
same,GI50,[18],1710 nM
same,TGI,[18],3.15 µM
same,GI50,[19],1600 nM
same,TGI,[19],3.31 µM
same,GI50,[20],140 nM
same,TGI,[20],271 nM
same,GI50,[21],1510 nM
same,TGI,[21],2930 nM
same,GI50,[22],1750 nM
same,TGI,[22],3.15 µM
same,GI50,[23],146 nM
same,TGI,[23],355 nM
same,GI50,[24],586 nM
same,TGI,[24],1870 nM
same,GI50,[25],1840 nM
same,TGI,[25],3.25 µM
same,GI50,[26],194 nM
same,TGI,[26],1300 nM
same,GI50,[27],1580 nM
same,TGI,[27],2930 nM
same,GI50,[28],176 nM
same,TGI,[28],349 nM
same,TGI,[29],1090 nM
same,GI50,[30],1460 nM
same,TGI,[30],2790 nM
same,GI50,[31],1630 nM
same,TGI,[31],2990 nM
same,GI50,[32],184 nM
same,TGI,[32],524 nM
same,GI50,[33],677 nM
same,TGI,[33],1930 nM
same,GI50,[34],257 nM
same,TGI,[34],702 nM
same,GI50,[35],215 nM
same,TGI,[35],490 nM
same,GI50,[36],1390 nM
same,TGI,[36],2700 nM
same,GI50,[37],1930 nM
same,TGI,[37],3.56 µM
same,GI50,[38],1020 nM
same,TGI,[38],2200 nM
same,GI50,[39],571 nM
same,TGI,[39],1890 nM
same,GI50,[40],1080 nM
same,TGI,[40],2280 nM
same,GI50,[41],1140 nM
same,TGI,[41],2360 nM
same,GI50,[42],288 nM
same,TGI,[42],1590 nM
same,GI50,[43],155 nM
same,TGI,[43],550 nM
same,GI50,[44],1620 nM
same,TGI,[44],2980 nM
same,GI50,[45],146 nM
same,TGI,[45],1030 nM
same,GI50,[46],1470 nM
same,TGI,[46],2840 nM
same,GI50,[47],242 nM
same,TGI,[47],1800 nM
same,GI50,[48],2470 nM
same,TGI,[48],5.64 µM
same,GI50,[49],2120 nM
same,TGI,[49],4.21 µM
same,GI50,[50],283 nM
same,TGI,[50],1160 nM
same,GI50,[51],294 nM
same,TGI,[51],1270 nM
same,GI50,[52],1820 nM
same,TGI,[52],3.26 µM
same,GI50,[53],2070 nM
same,TGI,[53],3.96 µM
same,GI50,[54],1630 nM
same,TGI,[54],3000 nM
same,GI50,[55],1560 nM
same,TGI,[55],2910 nM
same,GI50,[56],1950 nM
same,TGI,[56],3.39 µM
